Measured values as given in US20040006070A1, “Intraspinal continuous infusion of midazolam hydrochloride for the treatment of pain” (priority 2002, published 2004).
Counter-ions that a name gives are not always drawn.

Assay: Bloodwork: complete blood count, electrolytes, extended blood chemistry
Assay type: in vivo, sheep
Settings: for Total Bili: ref 0.14-0.32; for Creatinine: ref 1-2.7; for Albumin: ref 2.4-3; for K+: ref 3.9-5.4; for Phos: ref 5-7.3; for Total Prot: ref 6-7.9
Procedure: Indirect blood pressure, pulse recording, pain testing (mechanical stimulus device, cold and warm water baths see description in procedure) and weight were taken on days 1, 3, 7, 15, 22, 29, 36, and 43. Venous blood samples (15 ml drawn from the jugular vein with Vacutainer brand blood collection tubes) for complete blood count, electrolytes, and extended blood chemistry were drawn on days 1, 15, and 43 (mild procedure only light hand restraint necessary).

`Cc1ncc2n1-c1ccc(Cl)cc1C(c1ccccc1F)=NC2` [Midazolam, midazolam hydrochloride] showed a Glucose (sheep #91, 15 mg/day, Day 1) of 77 mg/dL, a Hct (sheep #91, 15 mg/day, Day 1) of 29.2% and a Hgb (sheep #91, 15 mg/day, Day 1) of 9.84 g/dL. For the same molecule, the MCH (sheep #91, 15 mg/day, Day 1) was 10.7 pg, the MCHC (sheep #91, 15 mg/day, Day 1) was 33.7 g/dL and the MCV (sheep #91, 15 mg/day, Day 1) was 31.8 fL. The “Na+” value (sheep #91, 15 mg/day, Day 1) was 149 mEq/l, the “Platlet Count” value (sheep #91, 15 mg/day, Day 1) was 996000 µL⁻¹ and the RBC (sheep #91, 15 mg/day, Day 1) was 9.18e+06 µL⁻¹. The WBC (sheep #91, 15 mg/day, Day 1) was 7090 µL⁻¹, the “Total Bili” value (sheep #91, 15 mg/day, Day 1) was 0.1 mg/dL and the Creatinine (sheep #91, 15 mg/day, Day 1) was 1.6 mg/dL. For the same molecule, the Albumin (sheep #91, 15 mg/day, Day 1) was 3.3 g/dL, the “K+” value (sheep #91, 15 mg/day, Day 1) was 4.9 mEq/l and the Phos (sheep #91, 15 mg/day, Day 1) was 6.2 mg/dL. The “Total Prot” value (sheep #91, 15 mg/day, Day 1) was 6.1 g/dL, the ALT (sheep #91, 15 mg/day, Day 15) was 10 U/L and the AST (sheep #91, 15 mg/day, Day 15) was 50 U/L. For the same molecule, the “Alk Phos” value (sheep #91, 15 mg/day, Day 15) was 162 U/L, the BUN (sheep #91, 15 mg/day, Day 15) was 13 mg/dL and the CPK (sheep #91, 15 mg/day, Day 15) was 56 U/L. For the same molecule, the Cholesterol (sheep #91, 15 mg/day, Day 15) was 56 mg/dL, the “Differential Count: Eosin” value (sheep #91, 15 mg/day, Day 15) was 12% and the “Differential Count: Lymph” value (sheep #91, 15 mg/day, Day 15) was 44%. For the same molecule, the “Differential Count: Seg” value (sheep #91, 15 mg/day, Day 15) was 44%, the “Gamma GT” value (sheep #91, 15 mg/day, Day 15) was 60 U/L and the Glucose (sheep #91, 15 mg/day, Day 15) was 83 mg/dL. It also gave a Hct (sheep #91, 15 mg/day, Day 15) of 31.8%, a Hgb (sheep #91, 15 mg/day, Day 15) of 10.8 g/dL and an MCH (sheep #91, 15 mg/day, Day 15) of 10.8 pg. The MCHC (sheep #91, 15 mg/day, Day 15) was 34.0 g/dL, the MCV (sheep #91, 15 mg/day, Day 15) was 31.8 fL and the “Na+” value (sheep #91, 15 mg/day, Day 15) was 148 mEq/l. The “Platlet Count” value (sheep #91, 15 mg/day, Day 15) was 848000 µL⁻¹, the RBC (sheep #91, 15 mg/day, Day 15) was 1e+07 µL⁻¹ and the WBC (sheep #91, 15 mg/day, Day 15) was 5130 µL⁻¹. The “Total Bili” value (sheep #91, 15 mg/day, Day 15) was 0.0 mg/dL, the Creatinine (sheep #91, 15 mg/day, Day 15) was 1.3 mg/dL and the Albumin (sheep #91, 15 mg/day, Day 15) was 3.3 g/dL. The “K+” value (sheep #91, 15 mg/day, Day 15) was 4.4 mEq/l, the Phos (sheep #91, 15 mg/day, Day 15) was 6.1 mg/dL and the “Total Prot” value (sheep #91, 15 mg/day, Day 15) was 6.2 g/dL. The ALT (sheep #91, 15 mg/day, Day 43) was 9 U/L, the AST (sheep #91, 15 mg/day, Day 43) was 63 U/L and the “Alk Phos” value (sheep #91, 15 mg/day, Day 43) was 174 U/L. The BUN (sheep #91, 15 mg/day, Day 43) was 14 mg/dL, the CPK (sheep #91, 15 mg/day, Day 43) was 54 U/L and the Cholesterol (sheep #91, 15 mg/day, Day 43) was 66 mg/dL. For the same molecule, the “Differential Count: Eosin” value (sheep #91, 15 mg/day, Day 43) was 5%, the “Differential Count: Lymph” value (sheep #91, 15 mg/day, Day 43) was 41% and the “Differential Count: Mono” value (sheep #91, 15 mg/day, Day 43) was 2%. For the same molecule, the “Differential Count: Seg” value (sheep #91, 15 mg/day, Day 43) was 52%, the “Gamma GT” value (sheep #91, 15 mg/day, Day 43) was 58 U/L and the Glucose (sheep #91, 15 mg/day, Day 43) was 81 mg/dL. For the same molecule, the Hct (sheep #91, 15 mg/day, Day 43) was 36.3%, the Hgb (sheep #91, 15 mg/day, Day 43) was 12.2 g/dL and the MCH (sheep #91, 15 mg/day, Day 43) was 10.4 pg. The MCHC (sheep #91, 15 mg/day, Day 43) was 33.6 g/dL, the MCV (sheep #91, 15 mg/day, Day 43) was 30.9 fL and the “Na+” value (sheep #91, 15 mg/day, Day 43) was 147 mEq/l. The “Platlet Count” value (sheep #91, 15 mg/day, Day 43) was 805000 µL⁻¹, the RBC (sheep #91, 15 mg/day, Day 43) was 1.18e+07 µL⁻¹ and the WBC (sheep #91, 15 mg/day, Day 43) was 5330 µL⁻¹. For the same molecule, the “Total Bili” value (sheep #91, 15 mg/day, Day 43) was 0.1 mg/dL, the Creatinine (sheep #91, 15 mg/day, Day 43) was 1.5 mg/dL and the Albumin (sheep #91, 15 mg/day, Day 43) was 3.6 g/dL. The “K+” value (sheep #91, 15 mg/day, Day 43) was 4.6 mEq/l, the Phos (sheep #91, 15 mg/day, Day 43) was 7.3 mg/dL and the “Total Prot” value (sheep #91, 15 mg/day, Day 43) was 6.4 g/dL. For the same molecule, the ALT (sheep #457, 15 mg/day, Day 1) was 10 U/L, the AST (sheep #457, 15 mg/day, Day 1) was 85 U/L and the “Alk Phos” value (sheep #457, 15 mg/day, Day 1) was 43 U/L. It also gave a BUN (sheep #457, 15 mg/day, Day 1) of 14 mg/dL, a CPK (sheep #457, 15 mg/day, Day 1) of 122 U/L and a Cholesterol (sheep #457, 15 mg/day, Day 1) of 59 mg/dL. The “Differential Count: Eosin” value (sheep #457, 15 mg/day, Day 1) was 1%, the “Differential Count: Lymph” value (sheep #457, 15 mg/day, Day 1) was 26% and the “Differential Count: Seg” value (sheep #457, 15 mg/day, Day 1) was 73%. The “Gamma GT” value (sheep #457, 15 mg/day, Day 1) was 59 U/L, the Glucose (sheep #457, 15 mg/day, Day 1) was 91 mg/dL and the Hct (sheep #457, 15 mg/day, Day 1) was 34.4%. It also gave a Hgb (sheep #457, 15 mg/day, Day 1) of 10.5 g/dL, an MCH (sheep #457, 15 mg/day, Day 1) of 10.2 pg and an MCHC (sheep #457, 15 mg/day, Day 1) of 30.5 g/dL. The MCV (sheep #457, 15 mg/day, Day 1) was 33.4 fL, the “Na+” value (sheep #457, 15 mg/day, Day 1) was 147 mEq/l and the “Platlet Count” value (sheep #457, 15 mg/day, Day 1) was 276000 µL⁻¹. For the same molecule, the RBC (sheep #457, 15 mg/day, Day 1) was 8.68e+06 µL⁻¹, the WBC (sheep #457, 15 mg/day, Day 1) was 11900 µL⁻¹ and the “Total Bili” value (sheep #457, 15 mg/day, Day 1) was 0.1 mg/dL. The Creatinine (sheep #457, 15 mg/day, Day 1) was 1.1 mg/dL, the Albumin (sheep #457, 15 mg/day, Day 1) was 2.8 g/dL and the “K+” value (sheep #457, 15 mg/day, Day 1) was 4.4 mEq/l. The Phos (sheep #457, 15 mg/day, Day 1) was 6.2 mg/dL, the “Total Prot” value (sheep #457, 15 mg/day, Day 1) was 5.0 g/dL and the ALT (sheep #457, 15 mg/day, Day 15) was 14 U/L. The AST (sheep #457, 15 mg/day, Day 15) was 55 U/L, the “Alk Phos” value (sheep #457, 15 mg/day, Day 15) was 93 U/L and the BUN (sheep #457, 15 mg/day, Day 15) was 20 mg/dL. For the same molecule, the CPK (sheep #457, 15 mg/day, Day 15) was 73 U/L, the Cholesterol (sheep #457, 15 mg/day, Day 15) was 65 mg/dL and the “Differential Count: Lymph” value (sheep #457, 15 mg/day, Day 15) was 71%. The “Differential Count: Mono” value (sheep #457, 15 mg/day, Day 15) was 3%, the “Differential Count: Seg” value (sheep #457, 15 mg/day, Day 15) was 24% and the “Gamma GT” value (sheep #457, 15 mg/day, Day 15) was 72 U/L. For the same molecule, the Glucose (sheep #457, 15 mg/day, Day 15) was 60 mg/dL, the Hct (sheep #457, 15 mg/day, Day 15) was 35.4% and the Hgb (sheep #457, 15 mg/day, Day 15) was 10.9 g/dL. It also gave an MCH (sheep #457, 15 mg/day, Day 15) of 10.6 pg, an MCHC (sheep #457, 15 mg/day, Day 15) of 30.8 g/dL and an MCV (sheep #457, 15 mg/day, Day 15) of 34.4 fL. The “Na+” value (sheep #457, 15 mg/day, Day 15) was 150 mEq/l, the “Platlet Count” value (sheep #457, 15 mg/day, Day 15) was 45000 µL⁻¹ and the RBC (sheep #457, 15 mg/day, Day 15) was 8.72e+06 µL⁻¹. The WBC (sheep #457, 15 mg/day, Day 15) was 15400 µL⁻¹, the “Total Bili” value (sheep #457, 15 mg/day, Day 15) was 0.1 mg/dL and the Creatinine (sheep #457, 15 mg/day, Day 15) was 1.1 mg/dL. For the same molecule, the Albumin (sheep #457, 15 mg/day, Day 15) was 3.3 g/dL, the “K+” value (sheep #457, 15 mg/day, Day 15) was 4.4 mEq/l and the Phos (sheep #457, 15 mg/day, Day 15) was 4.7 mg/dL. The “Total Prot” value (sheep #457, 15 mg/day, Day 15) was 5.9 g/dL, the ALT (sheep #457, 15 mg/day, Day 43) was 12 U/L and the AST (sheep #457, 15 mg/day, Day 43) was 69 U/L. For the same molecule, the “Alk Phos” value (sheep #457, 15 mg/day, Day 43) was 105 U/L, the BUN (sheep #457, 15 mg/day, Day 43) was 15 mg/dL and the CPK (sheep #457, 15 mg/day, Day 43) was 51 U/L. For the same molecule, the Cholesterol (sheep #457, 15 mg/day, Day 43) was 88 mg/dL, the “Differential Count: Eosin” value (sheep #457, 15 mg/day, Day 43) was 7% and the “Differential Count: Lymph” value (sheep #457, 15 mg/day, Day 43) was 68%. The “Differential Count: Mono” value (sheep #457, 15 mg/day, Day 43) was 2%, the “Differential Count: Seg” value (sheep #457, 15 mg/day, Day 43) was 23% and the “Gamma GT” value (sheep #457, 15 mg/day, Day 43) was 61 U/L. The Glucose (sheep #457, 15 mg/day, Day 43) was 67 mg/dL, the Hct (sheep #457, 15 mg/day, Day 43) was 40.4% and the Hgb (sheep #457, 15 mg/day, Day 43) was 12.6 g/dL. For the same molecule, the MCH (sheep #457, 15 mg/day, Day 43) was 11.5 pg, the MCHC (sheep #457, 15 mg/day, Day 43) was 31.2 g/dL and the MCV (sheep #457, 15 mg/day, Day 43) was 33.7 fL. The “Na+” value (sheep #457, 15 mg/day, Day 43) was 145 mEq/l, the RBC (sheep #457, 15 mg/day, Day 43) was 1.098e+07 µL⁻¹ and the WBC (sheep #457, 15 mg/day, Day 43) was 11200 µL⁻¹. For the same molecule, the “Total Bili” value (sheep #457, 15 mg/day, Day 43) was 0.1 mg/dL, the Creatinine (sheep #457, 15 mg/day, Day 43) was 1.4 mg/dL and the Albumin (sheep #457, 15 mg/day, Day 43) was 3.3 g/dL. The “K+” value (sheep #457, 15 mg/day, Day 43) was 4.9 mEq/l, the Phos (sheep #457, 15 mg/day, Day 43) was 5.9 mg/dL and the “Total Prot” value (sheep #457, 15 mg/day, Day 43) was 5.7 g/dL. The ALT (sheep #473, 3 mg/day, Day 1) was 22 U/L.
